By IC50 is commonly meant the concentration that inhibits the measured activity by half.

SMILES strings stand for the structures.

One assay deals with PKMYT1 (CDK1 pThr14) in FUOV1 cells. Nature of the assay: PKMYT1 cell-based activity assay, CDK1 pThr14 AlphaLISA in FUOV1 cells. To be noted: 2 h, 2 h compound incubation, read-out: FUOV-1 CDK1 pThr14 IC50. The procedure, abridged: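 IC50 was derived from AlphaLISA signal (excitation 680 nm, emission 615 nm) for phospho-Thr14 CDK1 in lysates. The detection antibodies were rabbit anti-pThr14 and mouse anti-total CDK1, each at 5 nM. FUOV1 ovarian cells were exposed to compound for 2 hours before lysis.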
As to `Cc1ccc2[nH]ncc2c1-c1nc(-c2cccnc2Nc2nccnc2C)nc(C(N)=O)c1N` [Compound 728], the IC50 is 56 nM.

On to `Cc1ccc2[nH]ncc2c1-c1nc(-c2cccnc2Nc2ncccc2C2CC2)nc(C(N)=O)c1N` [Compound 729], for which the 50% inhibitory concentration (IC50) worked out at 57 nM.

Consider `CCc1cccnc1Nc1ncccc1-c1nc(C(N)=O)c(N)c(-c2c(C)ccc3[nH]ncc23)n1` [Compound 730], for which the half-inhibitory concentration (IC50) turned out to be 19 nM.

Consider `Cc1ccc2[nH]ncc2c1-c1nc(-c2cc(F)cnc2NC2CCC(F)(F)CC2)nc(C(N)=O)c1N` [Compound 731], for which the concentration for half-maximal inhibition (IC50) was found to be 773 nM.

Turning to `Cc1ccc2[nH]ncc2c1-c1nc(-c2cc(F)cnc2NC2CC(C)(C)C2)nc(C(N)=O)c1N` [Compound 732], the IC50 is 534 nM.

Turning to `Cc1ccc2[nH]ncc2c1-c1nc(-c2cc(F)cnc2N[C@H]2C[C@@](C)(O)C2)nc(C(N)=O)c1N` [Compound 733, 5-amino-2-(5-fluoro-2-(((1s,3s)-3-hydroxy-3-methylcyclobutyl)amino)pyridin-3-yl)-6-(5-methyl-1H-indazol-4-yl)pyrimidine-4-carboxamide], the IC50 came to 48 nM.

For the compound `Cc1cccnc1Nc1nc(Cl)ccc1-c1nc(C(N)=O)c(N)c(-c2c(C)ccc3[nH]ncc23)n1` [Compound 736, 5-amino-2-(6-chloro-2-((3-methylpyridin-2-yl)amino)pyridin-3-yl)-6-(5-methyl-1H-indazol-4-yl)pyrimidine-4-carboxamide], the half-maximal inhibitory concentration (IC50) worked out at 6 nM.

Consider `Cc1cccnc1Nc1nc(C#N)ccc1-c1nc(C(N)=O)c(N)c(-c2c(C)ccc3[nH]ncc23)n1` [Compound 737], for which the IC50 stood at 34 nM.

Turning to `Cc1ccnc(Nc2ncccc2-c2nc(C(N)=O)c(N)c(-c3c(C)ccc4[nH]ncc34)n2)c1C` [Compound 738], the half-inhibitory concentration (IC50) stood at 383 nM.

In the case of `Cc1ccc2[nH]ncc2c1-c1nc(-c2ccc(C#N)cc2Nc2ncccc2F)nc(C(N)=O)c1N` [Compound 739], the IC50 turned out to be 9 nM.

Turning to `Cc1ccc(C#N)nc1Nc1ncccc1-c1nc(C(N)=O)c(N)c(-c2c(C)ccc3[nH]ncc23)n1` [Compound 740], the IC50 was found to be 7 nM.

`Cc1ccc2[nH]ncc2c1-c1nc(-c2cccnc2Nc2ncccc2CC#N)nc(C(N)=O)c1N` [Compound 741]: the concentration for half-maximal inhibition (IC50) stood at 155 nM.

Take `Cc1ccc(Cl)nc1Nc1ncccc1-c1nc(C(N)=O)c(N)c(-c2c(C)ccc3[nH]ncc23)n1` [Compound 742]: the half-inhibitory concentration (IC50) came to 5 nM.

As to `Cc1ccc2[nH]ncc2c1-c1nc(-c2cccnc2Nc2nc(C#N)ccc2Cl)nc(C(N)=O)c1N` [Compound 743], the IC50 stood at 3 nM.

Turning to `Cc1cnc(Cl)c(Nc2ncccc2-c2nc(C(N)=O)c(N)c(-c3c(C)ccc4[nH]ncc34)n2)n1` [Compound 744], the 50% inhibitory concentration (IC50) was found to be 8 nM.

Turning to `Cc1ccc2[nH]ncc2c1-c1nc(-c2ccc(C#N)nc2Nc2ncccn2)nc(C(N)=O)c1N` [Compound 745], the IC50 was 140 nM.

For the compound `Cc1ccc2[nH]ncc2c1-c1nc(-c2ccc(C#N)nc2Nc2ncccc2F)nc(C(N)=O)c1N` [Compound 746], the half-maximal inhibitory concentration (IC50) was 11 nM.

Consider `Cc1ccc2[nH]ncc2c1-c1nc(-c2cc(F)cnc2NCC(F)(F)F)nc(C(N)=O)c1N` [Compound 747], for which the concentration for half-maximal inhibition (IC50) is 87 nM.

`Cc1ccc2[nH]ncc2c1-c1nc(-c2cc(F)cnc2N[C@H]2C[C@](C)(O)C2)nc(C(N)=O)c1N` [Compound 748]: the concentration for half-maximal inhibition (IC50) was 40 nM.

For `Cc1ccc(F)c(Nc2ncccc2-c2nc(C(N)=O)c(N)c(-c3c(C)c(F)cc4[nH]ncc34)n2)n1` [Compound 749], the IC50 turned out to be 6 nM.

As to `Cc1cnc(C)c(Nc2cc(C#N)ccc2-c2nc(C(N)=O)c(N)c(-c3c(C)ccc4[nH]ncc34)n2)n1` [Compound 750], the IC50 was 73 nM.

`Cc1ccc2[nH]ncc2c1-c1nc(-c2ccc(C#N)cc2Nc2nccnc2C)nc(C(N)=O)c1N` [Compound 751]: the IC50 was found to be 14 nM.

As to `Cc1ccc2[nH]ncc2c1-c1nc(-c2cccnc2Nc2nc(F)ccc2Cl)nc(C(N)=O)c1N` [Compound 752], the half-inhibitory concentration (IC50) worked out at 2 nM.

Turning to `Cc1ccc2[nH]ncc2c1-c1nc(-c2cccnc2Nc2cncc(F)n2)nc(C(N)=O)c1N` [Compound 753], the IC50 stood at 59 nM.

Turning to `Cc1cccnc1Nc1cc(C#N)ccc1-c1nc(C(N)=O)c(N)c(-c2c(C)ccc3[nH]ncc23)n1` [Compound 754], the IC50 was 17 nM.

On to `Cc1ccc2[nH]ncc2c1-c1nc(-c2cc(F)c(C#N)cc2NC(C)C(F)(F)F)nc(C(N)=O)c1N` (centres unmarked) [Compound 755], for which the half-inhibitory concentration (IC50) amounted to 103 nM.

As to `Cc1ccc2[nH]ncc2c1-c1nc(-c2cc(F)cnc2N[C@H]2CC[C@H](C(C)(C)O)CC2)nc(C(N)=O)c1N` [Compound 757], the IC50 amounted to 199 nM.

With `Cc1ccc2[nH]ncc2c1-c1nc(-c2ccc(F)nc2Nc2ncccn2)nc(C(N)=O)c1N` [Compound 758], the IC50 turned out to be 83 nM.

Turning to `Cc1ccc2[nH]ncc2c1-c1nc(-c2ccc(Cl)nc2Nc2ncccn2)nc(C(N)=O)c1N` [Compound 759], the IC50 is 33 nM.

`Cc1ccc2[nH]ncc2c1-c1nc(-c2ccc(C(F)(F)F)nc2Nc2ncccn2)nc(C(N)=O)c1N` [Compound 760]: the IC50 turned out to be 201 nM.

`Cc1ccc2[nH]ncc2c1-c1nc(-c2cc(F)c(C#N)cc2Nc2ncccn2)nc(C(N)=O)c1N` [Compound 761]: the half-inhibitory concentration (IC50) is 75 nM.

On to `Cc1ccc2[nH]ncc2c1-c1nc(-c2cccnc2Nc2nccnc2Cl)nc(C(N)=O)c1N` [Compound 763], for which the IC50 was determined as 29 nM.

Take `Cc1ccc(-c2nc(C(N)=O)c(N)c(-c3c(C)ccc4[nH]ncc34)n2)c(Nc2ncccn2)n1` [Compound 764]: the IC50 was 25 nM.

For `Cc1ccc2[nH]ncc2c1-c1nc(-c2ccc(C#N)cc2Nc2cccnn2)nc(C(N)=O)c1N` [Compound 765], the IC50 was 23 nM.

`Cc1ccc2[nH]ncc2c1-c1nc(-c2cccnc2Nc2ncccc2C(F)(F)F)nc(C(N)=O)c1N` [Compound 767]: the concentration for half-maximal inhibition (IC50) turned out to be 11 nM.

With `Cc1ccc2[nH]ncc2c1-c1nc(-c2cccc(F)c2Nc2ncccn2)nc(C(N)=O)c1N` [Compound 769], the IC50 stood at 230 nM.

On to `Cc1ccc2[nH]ncc2c1-c1nc(-c2ccc(Cl)nc2Nc2nccnc2Cl)nc(C(N)=O)c1N` [Compound 770], for which the 50% inhibitory concentration (IC50) turned out to be 17 nM.

For the compound `Cc1ccc2[nH]ncc2c1-c1nc(-c2ccc(C(F)(F)F)nc2Nc2nccnc2Cl)nc(C(N)=O)c1N` [Compound 771], the concentration for half-maximal inhibition (IC50) came to 96 nM.

For the compound `Cc1ccc2[nH]ncc2c1-c1nc(-c2ccc(Cl)nc2N[C@H]2C[C@@](C)(O)C2)nc(C(N)=O)c1N` [Compound 772], the IC50 stood at 113 nM.

Turning to `Cc1ccc(F)c(Nc2ncccc2-c2nc(C(N)=O)c(N)c(-c3c(C)cc(F)c4[nH]ncc34)n2)n1` [Compound 773], the half-maximal inhibitory concentration (IC50) was 6 nM.

On to `Cc1cccc(-c2nc(C(N)=O)c(N)c(-c3c(C)ccc4[nH]ncc34)n2)c1Nc1ncccn1` [Compound 774], for which the IC50 was determined as 563 nM.

In the case of `Cc1ccnc(Nc2c(C)cccc2-c2nc(C(N)=O)c(N)c(-c3c(C)ccc4[nH]ncc34)n2)n1` [Compound 775], the IC50 worked out at 2600 nM.

Turning to `Cc1ccnc(Nc2c(F)cccc2-c2nc(C(N)=O)c(N)c(-c3c(C)ccc4[nH]ncc34)n2)n1` [Compound 776, 5-amino-2-(3-fluoro-2-((4-methylpyrimidin-2-yl)amino)phenyl)-6-(5-methyl-1H-indazol-4-yl)pyrimidine-4-carboxamide], the half-maximal inhibitory concentration (IC50) was determined as 1130 nM.

For the compound `COc1ccccc1-c1nc(C(N)=O)c(N)c(-c2c(C)ccc3[nH]ncc23)n1` [Compound 777], the IC50 was above 10000 nM.

For `CCc1ccccc1-c1nc(C(N)=O)c(N)c(-c2c(C)ccc3[nH]ncc23)n1` [Compound 778], the IC50 worked out at 1260 nM.

Turning to `Cc1ccc2[nH]ncc2c1-c1nc(-c2ccccc2CO)nc(C(N)=O)c1N` [Compound 779], the IC50 amounted to 494 nM.

Turning to `Cc1ccc2[nH]ncc2c1-c1nc(-c2ccc(Cl)nc2Nc2nccnc2C)nc(C(N)=O)c1N` [Compound 780], the concentration for half-maximal inhibition (IC50) worked out at 25 nM.

Regarding `Cc1ccc2[nH]ncc2c1-c1nc(-c2ccc(Cl)nc2Nc2ncccc2F)nc(C(N)=O)c1N` [Compound 781], the half-inhibitory concentration (IC50) was determined as 5 nM.

For the compound `Cc1ccc2[nH]ncc2c1-c1nc(-c2ccc(C#N)cc2NC2CCOCC2)nc(C(N)=O)c1N` [Compound 782], the IC50 turned out to be 25 nM.

For the compound `Cc1ccc2[nH]ncc2c1-c1nc(-c2cccnc2N[C@@H]2CC[C@H](O)C2)nc(C(N)=O)c1N` [Compound 783], the IC50 worked out at 35 nM.

On to `Cc1ccc2[nH]ncc2c1-c1nc(-c2cccnc2N[C@H]2CC[C@@H](O)C2)nc(C(N)=O)c1N` [Compound 784], for which the IC50 is 44 nM.

Turning to `Cc1ccc2[nH]ncc2c1-c1nc(-c2cccnc2N[C@H]2CC[C@H](O)C2)nc(C(N)=O)c1N` [Compound 785], the IC50 amounted to 22 nM.

Turning to `Cc1ccc2[nH]ncc2c1-c1nc(-c2cccnc2N[C@@H]2CC[C@@H](O)C2)nc(C(N)=O)c1N` [Compound 786], the IC50 came out at 9 nM.

With `Cc1ccc2[nH]ncc2c1-c1nc(-c2cc(C#N)ccc2Nc2ncccn2)nc(C(N)=O)c1N` [Compound 789], the concentration for half-maximal inhibition (IC50) is 43 nM.

For the compound `C[C@]1(O)C[C@@H](Nc2nc(Cl)ccc2-c2nc(C(N)=O)c(N)c(-c3c(Cl)ccc4[nH]ncc34)n2)C1` [Compound 790], the half-inhibitory concentration (IC50) was 271 nM.

On to `Cc1ccc2[nH]ncc2c1-c1nc(-c2ccc(F)nc2N[C@H]2C[C@@](C)(O)C2)nc(C(N)=O)c1N` [Compound 791], for which the IC50 is 61 nM.

The assay is the same for the next values; noted with them: 2 h, 2 hours with compound, read-out: FUOV-1 CDK1 pThr14 IC50.
In the case of `Cc1ccc2[nH]ncc2c1-c1nc(-c2cc(F)cnc2N[C@H]2CC[C@@H](O)C2)nc(C(N)=O)c1N` [Compound 797], the concentration for half-maximal inhibition (IC50) came out at 48 nM.

In the case of `Cc1ccc(F)c(Nc2ncccc2-c2nc(C(N)=O)c(N)c(-c3c(Cl)ccc4[nH]ncc34)n2)n1` [Compound 798], the half-maximal inhibitory concentration (IC50) is 5 nM.

The assay is the same for the next values; noted with them: 2 h compound incubation, read-out: FUOV-1 CDK1 pThr14 IC50.
For the compound `Cc1ccc2[nH]ncc2c1-c1nc(-c2cccnc2Nc2cccnc2)nc(C(N)=O)c1N` [Compound 768], the half-inhibitory concentration (IC50) came out at 122 nM.

The values are drawn from US20250304537A1 (Repare Therapeutics Inc., priority 2022, published 2025).
